Patent US12637445B2, “KIF18A inhibitors” (AMGEN INC., priority 2019, dated 2026)

molecular target: T1, Recombinant human KIF18A (1-467 His-tagged) protein (Homo sapiens, UniProt Q8NI77); assay: KIF18A Enzyme Assay (microtubule-stimulated ATPase activity, ADP-Glo); type: biochemical; details: 30 nM KIF18A, 30 μg/mL pig microtubules, 75 μM ATP, ADP-Glo luminescence
T1 construct: Recombinant human KIF18A (1-467 His-tagged) protein; His
From the text: KIF18A Enzyme Assay: Microtubule-stimulated ATPase activity assay is used to measure KIF18A enzyme activity after treatment with compound. Compounds were 2-fold serially diluted in DMSO (Sigma Inc) over 22-point concentration range. Recombinant human KIF18A (1-467 His-tagged) protein was expressed using a baculovirus system and purified by affinity chromatography by Amgen Inc. Concentrations of KIF18A protein, microtubules (MT), and ATP in the reaction were optimized for standardized homogenous enzyme assay using ADP-Glo™ Kinase/ATPase Assay Kit (Promega Inc). The assay measures ADP formed from the ATPase reaction. Prepare reaction buffer [(15 mM Tris, pH 7.5 (Teknova Inc), 10 mM MgCl2 (IT Baker Inc), 0.01% Pluronic F-68 (Life Technologies Inc), 1 μM Taxol (Cytoskeleton Inc), and 30 μg/mL pig microtubules (Cytoskeleton Inc)]. Add compound and KIF18A protein (30 nM) to prepared reaction buffer and incubated for 15 minutes at room temperature, next add ATP (at Kin, 75 μM) to the reaction mixture and incubated for an additional 15 minutes at room temperature. Mix 5 μl of ADP-Glor™ Reagent and 2.5 μl of the reaction mixture and incubate for 40 minutes at room temperature. Add 10 μl ADP-Glorh Detection Reagent and incubate for 40 minutes at room temperature. Read luminescence using EnVision microplate reader with ultra-luminescence module (Perkin Elmer Inc). Concentration-response curve-fitting and IC50 determination was performed using Genedata Screener Software (Standard 15.0.1, Genedata Inc) with a four-parameter logistic regression fit model.

T1 sequence (Q8NI77 1-467): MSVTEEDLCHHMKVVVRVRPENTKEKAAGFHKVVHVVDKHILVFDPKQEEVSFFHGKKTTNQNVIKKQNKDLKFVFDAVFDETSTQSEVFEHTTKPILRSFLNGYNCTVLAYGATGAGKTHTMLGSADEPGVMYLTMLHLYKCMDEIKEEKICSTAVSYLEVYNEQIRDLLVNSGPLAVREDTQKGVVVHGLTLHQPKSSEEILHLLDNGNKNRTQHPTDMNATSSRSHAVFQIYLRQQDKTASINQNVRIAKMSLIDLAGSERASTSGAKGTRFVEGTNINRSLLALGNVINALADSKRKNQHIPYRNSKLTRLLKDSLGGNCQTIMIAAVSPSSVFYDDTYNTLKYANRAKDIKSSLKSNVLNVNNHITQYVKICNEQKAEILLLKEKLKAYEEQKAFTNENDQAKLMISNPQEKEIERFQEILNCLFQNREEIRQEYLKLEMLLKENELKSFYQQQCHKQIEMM
T1 sequence (P02550 whole entry partner): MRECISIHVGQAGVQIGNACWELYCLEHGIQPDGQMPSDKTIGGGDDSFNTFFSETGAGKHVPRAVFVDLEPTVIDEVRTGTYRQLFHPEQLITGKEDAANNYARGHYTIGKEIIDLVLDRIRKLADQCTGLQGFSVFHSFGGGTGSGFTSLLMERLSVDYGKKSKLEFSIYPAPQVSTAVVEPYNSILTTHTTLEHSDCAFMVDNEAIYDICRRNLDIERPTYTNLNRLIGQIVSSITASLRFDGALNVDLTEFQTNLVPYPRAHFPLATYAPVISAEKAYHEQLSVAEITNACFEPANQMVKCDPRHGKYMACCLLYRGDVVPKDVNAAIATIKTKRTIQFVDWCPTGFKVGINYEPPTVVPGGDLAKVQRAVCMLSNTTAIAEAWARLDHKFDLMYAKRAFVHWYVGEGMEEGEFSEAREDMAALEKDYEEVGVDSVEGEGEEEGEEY
T1 sequence (P02554 whole entry partner): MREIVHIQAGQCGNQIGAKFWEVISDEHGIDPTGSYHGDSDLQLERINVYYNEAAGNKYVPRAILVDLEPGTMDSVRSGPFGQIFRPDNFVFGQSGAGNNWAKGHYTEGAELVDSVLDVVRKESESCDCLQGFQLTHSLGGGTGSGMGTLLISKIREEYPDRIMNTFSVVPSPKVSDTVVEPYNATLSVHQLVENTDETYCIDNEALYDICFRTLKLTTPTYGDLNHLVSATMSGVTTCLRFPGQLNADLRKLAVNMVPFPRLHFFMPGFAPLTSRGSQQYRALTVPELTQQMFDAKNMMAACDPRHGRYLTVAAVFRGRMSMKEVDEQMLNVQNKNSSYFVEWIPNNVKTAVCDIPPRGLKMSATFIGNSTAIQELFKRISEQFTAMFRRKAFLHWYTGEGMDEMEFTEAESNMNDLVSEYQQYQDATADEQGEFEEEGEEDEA

Row | SMILES | IC50
1 | Cc1cc(Nc2ncnc3cc(NS(=O)(=O)CCO)cc(N4CCC5(CC4)CC5)c23)cc(N2CCC(F)(F)CC2)c1 [Example 100, N-(4-((3-(4,4-Difluoropiperidin-1-yl)-5-methylphenyl)amino)-5-(6-azaspiro[2.5]octan-6-yl)quinazolin-7-yl)-2-hydroxyethane-1-sulfonamide] | 0.049 µM
2 | Cc1cc(Nc2ncnc3cc(NS(=O)(=O)CCO)cc(N4CCC5(CC4)CC5)c23)cc(OCCC(F)(F)F)c1 [Example 103, 2-Hydroxy-N-(4-((3-methyl-5-(3,3,3-trifluoropropoxy)phenyl)amino)-5-(6-azaspiro[2.5]octan-6-yl)quinazolin-7-yl)ethane-1-sulfonamide] | 0.175 µM
3 | Cc1cc(Nc2ncnc3cc(S(C)(=O)=O)cc(N4CCC5(CC4)CC5)c23)cc(N2CCC(F)(F)CC2)c1 [Example 101, N-(3-(4,4-Difluoropiperidin-1-yl)-5-methylphenyl)-7-(methylsulfonyl)-5-(6-azaspiro[2.5]octan-6-yl)quinazolin-4-amine] | 0.94 µM
4 | Cc1cc(Nc2ncnc3cc(NS(=O)(=O)CCO)cc(N4CCC5(CC4)CC5)c23)nc(N2CCC(F)(F)CC2)n1 [Example 104, N-(4-((2-(4,4-Difluoropiperidin-1-yl)-6-methylpyrimidin-4-yl)amino)-5-(6-azaspiro[2.5]octan-6-yl)quinazolin-7-yl)-2-hydroxyethane-1-sulfonamide] | 0.129 µM
5 | Cc1cc(Nc2ncnc3cc(NS(=O)(=O)CCO)cc(N4CCC5(CC4)CC5)c23)cc(N2CCC(F)(F)CC2)n1 [Example 105, N-(4-((2-(4,4-Difluoropiperidin-1-yl)-6-methylpyridin-4-yl)amino)-5-(6-azaspiro[2.5]octan-6-yl)quinazolin-7-yl)-2-hydroxyethane-1-sulfonamide] | 0.082 µM
6 | Cc1cc(Nc2ncnc3cccc(N4CCC5(CC4)CC5)c23)cc(N2CCC(F)(F)CC2)c1 [Example 101-1, N-(3-(4,4-Difluoropiperidin-1-yl)-5-methylphenyl)-5-(6-azaspiro[2.5]octan-6-yl)quinazolin-4-amine] | 3.34 µM
7 | Cc1cc(Nc2nncc3cc(NS(=O)(=O)CCO)cc(N4CCC5(CC4)CC5)c23)cc(N2CCC(F)(F)CC2)c1 [Example 106, N-(1-((3-(4,4-Difluoropiperidin-1-yl)-5-methylphenyl)amino)-8-(6-azaspiro[2.5]octan-6-yl)phthalazin-6-yl)-2-hydroxyethane-1-sulfonamide] | 0.025 µM
8 | Cc1cc(Nc2nc(C)nc3cc(NS(=O)(=O)CCO)cc(N4CCC5(CC4)CC5)c23)cc(N2CCC(F)(F)CC2)c1 [Example 100-1, N-(4-((3-(4,4-Difluoropiperidin-1-yl)-5-methylphenyl)amino)-2-methyl-5-(6-azaspiro[2.5]octan-6-yl)quinazolin-7-yl)-2-hydroxyethane-1-sulfonamide] | 0.955 µM

The remaining lines, values ahead:

Row | IC50 | SMILES
9 | 0.403 µM | Cc1cc(C)cc(Nc2ncnc3cc(NS(=O)(=O)CCO)cc(N4CCC5(CC4)CC5)c23)c1 [Example 103-1, N-(4-((3,5-Dimethylphenyl)amino)-5-(6-azaspiro[2.5]octan-6-yl)quinazolin-7-yl)-2-hydroxyethane-1-sulfonamide]
10 | 0.078 µM | Cc1cc(Nc2ncnc3cc(NS(=O)(=O)CCO)cc(N4CCC5(CC4)CC5)c23)nc(N2CCC(F)(F)CC2)c1 [Example 105-1, N-(4-((6-(4,4-Difluoropiperidin-1-yl)-4-methylpyridin-2-yl)amino)-5-(6-azaspiro[2.5]octan-6-yl)quinazolin-7-yl)-2-hydroxyethane-1-sulfonamide]
11 | 0.073 µM | Cc1cc(Nc2ncnc3cc([S@](=N)(=O)C4CC4)cc(N4CCC5(CC4)CC5)c23)cc(N2CCC(F)(F)CC2)c1 (single isomer, unassigned) [Example 102-1]
12 | 2.84 µM | Cc1cc(Oc2ncnc3cc(NS(=O)(=O)CCO)cc(N4CCC5(CC4)CC5)c23)cc(N2CCC(F)(F)CC2)c1 [Example 105-2, N-(4-(3-(4,4-Difluoropiperidin-1-yl)-5-methylphenoxy)-5-(6-azaspiro[2.5]octan-6-yl)quinazolin-7-yl)-2-hydroxyethane-1-sulfonamide]
13 | 0.262 µM | Cc1cc(Nc2ncnc3cc([S@@](=N)(=O)C4CC4)cc(N4CCC5(CC4)CC5)c23)cc(N2CCC(F)(F)CC2)c1 (single isomer, unassigned) [Example 102-2]
14 | 0.061 µM | O=S(=O)(CCO)Nc1cc(N2CCC3(CC2)CC3)c2c(Nc3cccc(OCCC(F)(F)F)c3)ncnc2c1 [Example 103-2, N-(5-(6-Azaspiro[2.5]octan-6-yl)-4-((3-(3,3,3-trifluoropropoxy)phenyl)amino)quinazolin-7-yl)-2-hydroxyethane-1-sulfonamide]
